Source: patent US20100184807A1, “Methods to inhibit tumor cell growth by using proton pump inhibitors” (Bio-Quant, Inc., priority 2008, published 2010)

Key:
Assay in all cases: MTT tumor cell growth assay
Type in all cases: cell-based
[1] = system: U251 (brain cancer); settings: U251 cells, lansoprazole 1-100 μM, 48 hours
Description: (§1) In one study, adherent cells were plated approximately 16-24 hours before the day of the experiment in 180 μl growth media. On the day of the experiment, the plated adherent cells were analyzed and counted and suspension cells were plated in 180 μl growth media. 10× lansoprazole compounds and vehicle was prepared. The 10× lansoprazole compounds were prepared by diluting lansoprazole to final concentrations of 100 μM, 30 μM, 10 μM, 3 μM, and 1 μM. A vehicle was prepared by preparing a solution of PBS, equivalent to the volume used for 10 μM lansoprazole wherein the 1× solution constitutes ˜0.06% PBS. 10 μl of the various 10× lansoprazole solutions and the vehicle were added to the cells. The cells were incubated at 37° C., 5% CO2 for 48 hours. The media was then aspirated. The cell suspension was then spun at 1500 RPM for 10 minutes. The media was slowly removed. 200 μl of MTT solution was added to each well with a concentration of 0.863 mg/ml MTT in the growth media. The cells were incubated at 37° C., 5% CO2 for 4 hours and the medium is then aspirated. The plate containing the cell suspension was then spun at 1500 RPM for 10 minutes. The media was slowly removed using a multichannel pipettor. 100 μl of DMSO was then added to each well. The cells were incubated at 37° C., 5% CO2 for 5 minutes and the absorbance was obtained at 560 nm using a Dynex Opsys MR plate reader.

[2] = system: SF-539 (brain cancer); settings: SF-539 cells, lansoprazole 1-100 μM, 48 hours
Description: as §1

[3] = system: SNB19 (brain cancer); settings: SNB19 cells, lansoprazole 1-100 μM, 48 hours
Description: as §1

[4] = system: SF295 (brain cancer); settings: SF295 cells, lansoprazole 1-100 μM, 48 hours
Description: as §1

Measured: tumor cell growth reduction

Cc1c(OCC(F)(F)F)ccnc1C[S+]([O-])c1nc2ccccc2[nH]1 (stereo not shown) [lansoprazole]
significant tumor cell growth reduction: all assays above
